According to US20120108629A1, “New use of neferine” (Institute of Chinese Materia Medica, China Academy, priority 2009, published 2012):

Tests used:
[1] = system: TRPM8 mRNA; assay: TRPM8 mRNA expression in DRG cells by real-time PCR; details: DRG cells
Procedure: DRG were aseptically removed and meticulously cleaned the rootlets and connective tissue. The tissue was digested with collagenase and trypsin in succession, and then centrifuged and the digestive liquid was discarded. Cells were prepared into single cell suspension in common culture medium, and then calculated and adjusted to 10^5 nerve cells per ml. It was incubated in culture plates pre-coated with laminin at 37° C. in 5% CO2 for 48 hours. Camptothecine was used to inhibit proliferation of other cells. Culture was continued to obtain DRG cells with a high purity (>98%).
Detection of TRPM8 and TRPV1 mRNA expression: The total RNA of the DRG neuronal cells was extracted in a routine way, after exposure to the tested agents of various concentrations under the normal, low and high temperature conditions respectively. The concentration of RNA was measured and its cDNA was prepared. The desired amount of resulting cDNA and TRPM8 or TRPV1 gene primers were added on the IQ5-Type real-time IQ5-Type real-time PCR meter with GAPDH as the endogenous control to perform extension. Melting curves were generated. Relative gene expression was calculated using the comparative threshold cycle (2-^ΔΔCT) method with the calculated formula as following:
ΔΔCt=(Ct,Target-Ct,GAPDH)x-(Ct,Target-Ct,GAPDH)Control
X represents any one of tested, Control represents double target gene expression after GAPDH correction.
The purified culture medium of DRG cells was added with three different concentrations of test compounds and cultured at 37° C. in 5% CO2 for 24 h. The total RNA was extracted immediately after culture. The TRPM8 agonist hexahydrothymol was positive control group and the normal culture medium was vehicle control group. Then the real-time PCR amplification was performed and TRPM8 mRNA was determined.
The purified culture medium of DRG cells was added with three different concentrations of test compounds and cultured at 37° C. in 5% CO2 for 23 h followed by 39° C. in 5% CO2 for 1 h. The total RNA was extracted immediately after culture. The TRPM8 agonist hexahydrothymol was positive control group and the normal culture medium was vehicle control group. Then the real-time PCR amplification was performed and TRPM8 mRNA was determined.
The purified culture medium of DRG cells was added with three different concentrations of test compounds and cultured at 37° C. in 5% CO2 for 22 h followed by 19° C. in 5% CO2 for 2 h. The total RNA was extracted immediately after culture. The TRPM8 agonist hexahydrothymol was positive control group and the normal culture medium was vehicle control group. Then the real-time PCR amplification was performed and TRPM8 mRNA was determined.

[2] = system: TRPV1 mRNA; assay: TRPV1 mRNA expression in DRG cells by real-time PCR; format: cell-based, rat; details: for TRPV1 mRNA expression (2^−ΔΔCT): 37° C. 24 h
[3] = system: TRPV1; assay: Intracellular calcium change in DRG cells, Fluo-4 fluorescence (Examples 4-5, Tables 4-5); format: cell-based, rat
Procedure: (§1) Detection of intracellular calcium concentrations of DRG cells: DRG cells cultured under normal, low and high temperature conditions was obtained. The medium was discarded and the cells were washed after certain time. 0.1%F-127, 5 μM of Fluo-4-AM, M fluorescent dye were added and loaded at 25° C. out of light for 30 min. After dye loading, the redundant dye was washed out and buffer and test compounds were added respectively. The cells were put in a closed chamber on a microscope stage. Fluorescence dyed cells were detected with appropriate conditions. The change of fluorescence intensity in each cell was determined and the data were analyzed by software. The change of the intracellular calcium concentration was indicated by fluorescence intensity. The change degree of the intracellular calcium concentration was represented by the percent ratio of the change value of fluorescence intensity before and after administration and the value of fluorescence intensity before administration (Δ[Ca2+]i), i.e. Δ[Ca2+]i=(fluorescence intensity value after administration F-fluorescence intensity value before administration F0)/fluorescence intensity value before administration F0×100%. The change of the intracellular calcium concentration indicated the function of TRP.
(§2) The medium was discarded and the fluorescent dye was added and loaded for 30 min. The change of fluorescence intensity in cell was determined in a closed chamber on a microscope stage and the change of the intracellular calcium concentration was assayed.
as §2

[4] = target: TRPV1 (Rattus norvegicus, UniProt O35433); assay: Intracellular calcium change in DRG cells, Fluo-4 fluorescence (Examples 9-11, Tables 9-11); format: cell-based
Procedure: as §1, §2, §2
(this is the appropriate stimulation time for the intracellular calcium change after stimulation under 19° C., and the experiment data was not shown). The medium was discarded and the fluorescent dye was added and loaded for 30 min.

[5] = 37° C. 22 h then 19° C. 2 h, 37.5 μmol/L
[6] = 37° C. 22 h then 19° C. 2 h, 75 μmol/L
[7] = 37° C. 22 h then 19° C. 2 h, 150 μmol/L
[8] = 37° C. 23 h then 39° C. 1 h, 37.5 μmol/L
[9] = 37° C. 23 h then 39° C. 1 h, 75 μmol/L
[10] = 37° C. 23 h then 39° C. 1 h, 150 μmol/L

Sequence of TRPV1 (Rattus norvegicus, UniProt O35433) (O35433 whole entry): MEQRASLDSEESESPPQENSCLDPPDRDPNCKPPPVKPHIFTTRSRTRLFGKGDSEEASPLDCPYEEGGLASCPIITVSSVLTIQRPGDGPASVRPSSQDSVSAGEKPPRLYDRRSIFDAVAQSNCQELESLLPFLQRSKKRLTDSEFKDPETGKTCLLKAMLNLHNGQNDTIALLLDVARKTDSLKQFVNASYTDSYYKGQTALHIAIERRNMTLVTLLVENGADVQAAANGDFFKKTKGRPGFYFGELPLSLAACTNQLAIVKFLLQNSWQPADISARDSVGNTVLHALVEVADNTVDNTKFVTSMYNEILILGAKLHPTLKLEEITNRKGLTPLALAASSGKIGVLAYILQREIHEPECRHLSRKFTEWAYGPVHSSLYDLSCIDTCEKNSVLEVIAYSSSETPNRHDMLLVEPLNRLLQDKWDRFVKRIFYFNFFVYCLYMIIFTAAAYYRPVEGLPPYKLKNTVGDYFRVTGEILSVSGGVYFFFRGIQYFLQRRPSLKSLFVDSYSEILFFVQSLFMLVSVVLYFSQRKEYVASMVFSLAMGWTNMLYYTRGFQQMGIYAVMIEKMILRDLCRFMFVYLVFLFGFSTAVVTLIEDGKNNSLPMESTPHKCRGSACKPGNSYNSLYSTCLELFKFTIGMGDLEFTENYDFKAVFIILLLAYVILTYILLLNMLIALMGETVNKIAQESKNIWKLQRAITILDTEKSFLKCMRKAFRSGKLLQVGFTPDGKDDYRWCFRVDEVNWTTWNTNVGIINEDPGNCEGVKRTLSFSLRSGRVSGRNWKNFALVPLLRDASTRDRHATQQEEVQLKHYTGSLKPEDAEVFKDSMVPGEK

## CC1CCC(C(C)C)C(O)C1 (stereo not drawn) [hexahydrothymol, reference compound]
[1]; [5]
  TRPM8 mRNA expression (2^−ΔΔCT): 3.67 ± 0.93
[1]; [6]
  TRPM8 mRNA expression (2^−ΔΔCT): 3.72 ± 1.09
[1]; [7]
  TRPM8 mRNA expression (2^−ΔΔCT): 4.07 ± 1.12
[1]; [8]
  TRPM8 mRNA expression (2^−ΔΔCT): 0.89 ± 0.25
[1]; [9]
  TRPM8 mRNA expression (2^−ΔΔCT): 0.91 ± 0.27
[1]; [10]
  TRPM8 mRNA expression (2^−ΔΔCT): 0.96 ± 0.32
[1]; 37° C. 24 h, 37.5 μmol/L
  TRPM8 mRNA expression (2^−ΔΔCT): 1.13 ± 0.22
[1]; 37° C. 24 h, 75 μmol/L
  TRPM8 mRNA expression (2^−ΔΔCT): 1.20 ± 0.28
[1]; 37° C. 24 h, 150 μmol/L
  TRPM8 mRNA expression (2^−ΔΔCT): 1.29 ± 0.31
[2]; [5]
  TRP V1 mRNA expression(2^−ΔΔCT): 0.54 ± 0.17
[2]; [6]
  TRP V1 mRNA expression(2^−ΔΔCT): 0.48 ± 0.19
[2]; [7]
  TRP V1 mRNA expression(2^−ΔΔCT): 0.47 ± 0.15
[2]; [8]
  TRP V1 mRNA expression(2^−ΔΔCT): 4.22 ± 0.49
[2]; [9]
  TRP V1 mRNA expression(2^−ΔΔCT): 4.01 ± 0.73
[2]; [10]
  TRP V1 mRNA expression(2^−ΔΔCT): 4.05 ± 0.81
[2]; 37.5 μmol
  TRPV1 mRNA expression (2^−ΔΔCT): 0.96 ± 0.21
[2]; 75 μmol
  TRPV1 mRNA expression (2^−ΔΔCT): 1.10 ± 0.28
[2]; 150 μmol
  TRPV1 mRNA expression (2^−ΔΔCT): 1.08 ± 0.31
[3]; Table 4, DRG cells, 37° C. 24 h, 37.5 μmol/L
  Intracellular Calcium changes [(F1 − F0)/F0/%]: 116.52 ± 10.22%
[3]; Table 4, DRG cells, 37° C. 24 h, 75 μmol/L
  Intracellular Calcium changes [(F1 − F0)/F0/%]: 117.46 ± 13.58%
[3]; Table 4, DRG cells, 37° C. 24 h, 150 μmol/L
  Intracellular Calcium changes [(F1 − F0)/F0/%]: 120.65 ± 12.19%
[3]; Table 5, DRG cells, 37° C. 22 h then 39° C. 2 h, 37.5 μmol/L
  Intracellular Calcium changes [(F1 − F0)/F0/%]: 107.54 ± 13.09%
[3]; Table 5, DRG cells, 37° C. 22 h then 39° C. 2 h, 75 μmol/L
  Intracellular Calcium changes [(F1 − F0)/F0/%]: 108.63 ± 15.17%
[3]; Table 5, DRG cells, 37° C. 22 h then 39° C. 2 h, 150 μmol/L
  Intracellular Calcium changes [(F1 − F0)/F0/%]: 112.92 ± 13.19 %
[4]; Table 9, DRG cells, 37° C. 24 h, 37.5 μmol/L
  Intracellular Calcium changes [(F1 − F0)/F0/%]: 100.14 ± 11.26%
[4]; Table 9, DRG cells, 37° C. 24 h, 75 μmol/L
  Intracellular Calcium changes [(F1 − F0)/F0/%]: 101.82 ± 14.89%
[4]; Table 9, DRG cells, 37° C. 24 h, 150 μmol/L
  Intracellular Calcium changes [(F1 − F0)/F0/%]: 98.31 ± 12.17%
[4]; Table 10, DRG cells, 37° C. 22 h then 39° C. 2 h, 37.5 μmol/L
  Intracellular Calcium changes [(F1 − F0)/F0/%]: 133.49 ± 15.18%
[4]; Table 10, DRG cells, 37° C. 22 h then 39° C. 2 h, 75 μmol/L
  Intracellular Calcium changes [(F1 − F0)/F0/%]: 132.01 ± 14.50%
[4]; Table 10, DRG cells, 37° C. 22 h then 39° C. 2 h, 150 μmol/L
  Intracellular Calcium changes [(F1 − F0)/F0/%]: 126.08 ± 12.48%
[4]; Table 11, DRG cells, 37° C. 21 h then 19° C. 3 h, 37.5 μmol/L
  Intracellular Calcium changes [(F1 − F0)/F0/%]: 96.91 ± 11.34%
[4]; Table 11, DRG cells, 37° C. 21 h then 19° C. 3 h, 75 μmol/L
  Intracellular Calcium changes [(F1 − F0)/F0/%]: 96.75 ± 11.08%
[4]; Table 11, DRG cells, 37° C. 21 h then 19° C. 3 h, 150 μmol/L
  Intracellular Calcium changes [(F1 − F0)/F0/%]: 95.48 ± 10.23%
